Assay results published in PubChem BioAssay AID1963831 (Molecular Pharmacology Branch, DTP, NCI, 2024).

Test system: 889142-216-R-J1-PDC complex spheroid viability
Assay: Anticancer human tumor 889142-216-R-J1-PDC patient-derived bladder carcinoma cell line growth inhibition [POLQ]
Conditions: for IC50: curve of first compound; for viability, T/C: stronger effect = lower value; active = viability on the fitted dose curve at most 10% of control; inactive = the rest
Procedure, shortened: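 Complex spheroid viability model combining PDC tumour cells with endothelial (HUVEC) and MSC stromal cells. Novobiocin, ART-558 or RP6685 were tested singly and in combination with standard and investigational anticancer drugs. Each was titrated in half-log steps from near clinical Cmax, or from 10 microM where Cmax was unknown.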

[1] = second compound 0.0316 µM, first compound 0.00316 µM
[2] = second compound 0.0316 µM, first compound 0.01 µM
[3] = second compound 0.0316 µM, first compound 0.0316 µM
[4] = second compound 0.0316 µM, first compound 0.1 µM
[5] = second compound 0.1 µM, first compound 0.00316 µM
[6] = second compound 0.1 µM, first compound 0.01 µM
[7] = second compound 0.1 µM, first compound 0.0316 µM
[8] = second compound 0.1 µM, first compound 0.1 µM
[9] = second compound 0.316 µM, first compound 0.00316 µM
[10] = second compound 0.316 µM, first compound 0.01 µM
[11] = second compound 0.316 µM, first compound 0.0316 µM
[12] = second compound 0.316 µM, first compound 0.1 µM
[13] = second compound 1 µM, first compound 0.00316 µM
[14] = second compound 1 µM, first compound 0.01 µM
[15] = second compound 1 µM, first compound 0.0316 µM
[16] = second compound 1 µM, first compound 0.1 µM
[17] = second compound 3.16 µM, first compound 0.00316 µM
[18] = second compound 3.16 µM, first compound 0.01 µM
[19] = second compound 3.16 µM, first compound 0.0316 µM
[20] = second compound 3.16 µM, first compound 0.1 µM
[21] = second compound 10 µM, first compound 0.00316 µM
[22] = second compound 10 µM, first compound 0.01 µM
[23] = second compound 10 µM, first compound 0.0316 µM
[24] = second compound 10 µM, first compound 0.1 µM
[25] = second compound 0.0316 µM, first compound 0.316 µM
[26] = second compound 0.0316 µM, first compound 1 µM
[27] = second compound 0.0316 µM, first compound 3.16 µM
[28] = second compound 0.0316 µM, first compound 10 µM
[29] = second compound 0.1 µM, first compound 0.316 µM
[30] = second compound 0.1 µM, first compound 1 µM
[31] = second compound 0.1 µM, first compound 3.16 µM
[32] = second compound 0.1 µM, first compound 10 µM
[33] = second compound 0.316 µM, first compound 0.316 µM
[34] = second compound 0.316 µM, first compound 1 µM
[35] = second compound 0.316 µM, first compound 3.16 µM
[36] = second compound 0.316 µM, first compound 10 µM
[37] = second compound 1 µM, first compound 0.316 µM
[38] = second compound 1 µM, first compound 1 µM
[39] = second compound 1 µM, first compound 3.16 µM
[40] = second compound 1 µM, first compound 10 µM
[41] = second compound 3.16 µM, first compound 0.316 µM
[42] = second compound 3.16 µM, first compound 1 µM
[43] = second compound 3.16 µM, first compound 3.16 µM
[44] = second compound 3.16 µM, first compound 10 µM
[45] = second compound 10 µM, first compound 0.316 µM
[46] = second compound 10 µM, first compound 1 µM
[47] = second compound 10 µM, first compound 3.16 µM
[48] = second compound 10 µM, first compound 10 µM
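Also: spheroids exposed to compounds for seven days.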
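For viability, T/C in this document: 100% = DMSO vehicle control viability.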

Cn1ncnc1[C@H]1c2n[nH]c(=O)c3cc(F)cc(c23)N[C@@H]1c1ccc(F)cc1 + Nc1ccc(C#CCN(C(=O)Cc2ncc(C(F)(F)F)cc2C(F)(F)F)c2ccc(F)cc2)nn1
> 100 nM: IC50 (second compound 0.0316 µM) | IC50 (second compound 0.1 µM) | IC50 (second compound 0.316 µM) | IC50 (second compound 1 µM) | IC50 (second compound 3.16 µM) | IC50 (second compound 10 µM)
inactive: viability, T/C (second compound 0.0316 µM, first compound 0.000316 µM) 96.8% | viability, T/C (second compound 0.0316 µM, first compound 0.001 µM) 121% | viability, T/C [1] 110% | viability, T/C [2] 85.7% | viability, T/C [3] 90.3% | viability, T/C [4] 87.4% | viability, T/C (second compound 0.1 µM, first compound 0.000316 µM) 176% | viability, T/C (second compound 0.1 µM, first compound 0.001 µM) 83.6% | viability, T/C [5] 92% | viability, T/C [6] 91.4% | viability, T/C [7] 105% | viability, T/C [8] 101% | viability, T/C (second compound 0.316 µM, first compound 0.000316 µM) 108% | viability, T/C (second compound 0.316 µM, first compound 0.001 µM) 102% | viability, T/C [9] 91.3% | viability, T/C [10] 79.6% | viability, T/C [11] 97.2% | viability, T/C [12] 73.2% | viability, T/C (second compound 1 µM, first compound 0.000316 µM) 127% | viability, T/C (second compound 1 µM, first compound 0.001 µM) 81.1% | viability, T/C [13] 124% | viability, T/C [14] 95.9% | viability, T/C [15] 67.4% | viability, T/C [16] 72.2% | viability, T/C (second compound 3.16 µM, first compound 0.000316 µM) 110% | viability, T/C (second compound 3.16 µM, first compound 0.001 µM) 124% | viability, T/C [17] 135% | viability, T/C [18] 77.1% | viability, T/C [19] 92.3% | viability, T/C [20] 87.2% | viability, T/C (second compound 10 µM, first compound 0.000316 µM) 122% | viability, T/C (second compound 10 µM, first compound 0.001 µM) 93.5% | viability, T/C [21] 113% | viability, T/C [22] 90.2% | viability, T/C [23] 115% | viability, T/C [24] 80.4%

Nc1ccn(C2OC(CO)C(O)C2(F)F)c(=O)n1 (stereo not drawn) + Cc1cccc(N(C)C(=O)C2C(O)CCN2c2nc(C)cc(C(F)(F)F)c2C#N)c1
99.1 nM: IC50 (second compound 10 µM)
213 nM: IC50 (second compound 3.16 µM)
177 nM: IC50 (second compound 0.0316 µM)
inactive: viability, T/C [3] 67.7% | viability, T/C [4] 49.5% | viability, T/C [25] 48.8% | viability, T/C [26] 40.5% | viability, T/C [27] 40.4% | viability, T/C [28] 31.4% | viability, T/C [7] 59% | viability, T/C [8] 53.9% | viability, T/C [29] 44.5% | viability, T/C [30] 39.1% | viability, T/C [31] 44% | viability, T/C [32] 36.3% | viability, T/C [11] 55.6% | viability, T/C [12] 50.4% | viability, T/C [33] 46% | viability, T/C [34] 45% | viability, T/C [35] 39.1% | viability, T/C [36] 34% | viability, T/C [15] 58.3% | viability, T/C [16] 57.9% | viability, T/C [37] 49.2% | viability, T/C [38] 43.9% | viability, T/C [39] 38.7% | viability, T/C [40] 32.5% | viability, T/C [19] 54.7% | viability, T/C [20] 54.7% | viability, T/C [41] 47.7% | viability, T/C [42] 43.7% | viability, T/C [43] 37.5% | viability, T/C [44] 31.7% | viability, T/C [23] 69.2% | viability, T/C [24] 49% | viability, T/C [45] 43.9% | viability, T/C [46] 43.8% | viability, T/C [47] 46.6% | viability, T/C [48] 34%
138 nM: IC50 (second compound 0.1 µM)
330 nM: IC50 (second compound 1 µM)
140 nM: IC50 (second compound 0.316 µM)

C=CCn1c(=O)c2cnc(Nc3ccc(N4CCN(C)CC4)cc3)nc2n1-c1cccc(C(C)(C)O)n1 + Nc1ccc(C#CCN(C(=O)Cc2ncc(C(F)(F)F)cc2C(F)(F)F)c2ccc(F)cc2)nn1
inactive: viability, T/C [1] 113% | viability, T/C [2] 118% | viability, T/C [3] 88.4% | viability, T/C [4] 87.2% | viability, T/C [25] 74.8% | viability, T/C [26] 58.2% | viability, T/C [5] 114% | viability, T/C [6] 119% | viability, T/C [7] 108% | viability, T/C [8] 85.1% | viability, T/C [29] 64.5% | viability, T/C [30] 56.2% | viability, T/C [9] 106% | viability, T/C [10] 79.1% | viability, T/C [11] 78% | viability, T/C [12] 80.7% | viability, T/C [33] 72.5% | viability, T/C [34] 62.4% | viability, T/C [13] 101% | viability, T/C [14] 83.8% | viability, T/C [15] 99.4% | viability, T/C [16] 78.4% | viability, T/C [37] 81.1% | viability, T/C [38] 58.9% | viability, T/C [17] 98.9% | viability, T/C [18] 87.4% | viability, T/C [19] 98.1% | viability, T/C [20] 90.3% | viability, T/C [41] 84.5% | viability, T/C [42] 59.1% | viability, T/C [21] 97.4% | viability, T/C [22] 96% | viability, T/C [23] 107% | viability, T/C [24] 102% | viability, T/C [45] 66.4% | viability, T/C [46] 54.6%
> 1000 nM: IC50 (second compound 0.0316 µM) | IC50 (second compound 0.1 µM) | IC50 (second compound 0.316 µM) | IC50 (second compound 1 µM) | IC50 (second compound 3.16 µM) | IC50 (second compound 10 µM)

O=C(Nc1ccc(O)c(NS(=O)(=O)c2ccc(F)cc2)c1)c1ccc(-c2ccccc2)cc1 + Cc1cccc(N(C)C(=O)C2C(O)CCN2c2nc(C)cc(C(F)(F)F)c2C#N)c1
> 10000 nM: IC50 (second compound 0.0316 µM) | IC50 (second compound 0.1 µM) | IC50 (second compound 0.316 µM) | IC50 (second compound 1 µM) | IC50 (second compound 3.16 µM) | IC50 (second compound 10 µM)
inactive: viability, T/C [3] 103% | viability, T/C [4] 106% | viability, T/C [25] 112% | viability, T/C [26] 134% | viability, T/C [27] 101% | viability, T/C [28] 85.1% | viability, T/C [7] 94.9% | viability, T/C [8] 121% | viability, T/C [29] 98.1% | viability, T/C [30] 127% | viability, T/C [31] 126% | viability, T/C [32] 86.4% | viability, T/C [11] 140% | viability, T/C [12] 93.2% | viability, T/C [33] 85.9% | viability, T/C [34] 120% | viability, T/C [35] 112% | viability, T/C [36] 80.2% | viability, T/C [15] 96.2% | viability, T/C [16] 96.7% | viability, T/C [37] 84% | viability, T/C [38] 97.5% | viability, T/C [39] 131% | viability, T/C [40] 70.4% | viability, T/C [19] 87.8% | viability, T/C [20] 123% | viability, T/C [41] 121% | viability, T/C [42] 107% | viability, T/C [43] 91.2% | viability, T/C [44] 77.6% | viability, T/C [23] 69.3% | viability, T/C [24] 98.9% | viability, T/C [45] 97% | viability, T/C [46] 89.6% | viability, T/C [47] 85.3% | viability, T/C [48] 69.4%
